For two compounds, IC50 results are on record in BindingDB's records for doi:10.1021/jm00128a027 (Rorer Central Research, 1989).

In this experiment the target is Polyunsaturated fatty acid 5-lipoxygenase (Cavia porcellus). The experiment can be described thus: In vitro inhibition of polymorphonuclear leukocyte derived guinea pig 5-lipoxygenase.

`O=C(CCCc1ccccc1)N(O)CCc1ccccc1` yielded an IC50 of 130 nM.

Consider `O=C(c1ccc(OCc2ccccc2)cc1)N(O)CCc1ccccc1`, for which inhibition was half-maximal at 50 nM (IC50).
